Results: patent publication US9566254B2, “Inhibitors and methods of inhibiting bacterial and viral pathogens” (priority 2010, dated 2017)
Counter-ions that a name gives are not always drawn. Like-named read-outs stand apart in the source and are kept apart here.

Legend:
Assay in all cases: microbe, parasite or virus in culture
Assay type in all cases: cell-based
vaccinia virus = details: read-out: Avg Activity (VV)
La Crosse virus (LACV) = tested on: La Crosse virus (LACV)
Chlamydophila caviae = details: Chlamydia caviae, Vero, read-out: Avg Activity (C. Caviae)
influenza virus = details: unidentified influenza virus
dengue virus = tested on: dengue virus
Tacaribe virus = details: Mammarenavirus tacaribeense, Vero
Ebola virus = details: Zaire ebolavirus
[1] = tested on: Rift Valley fever virus (RVFV) vaccine strain MP-12; details: Vero
[2] = tested on: lymphocytic choriomeningitis virus; details: for EC50: Mammarenavirus choriomeningitidis, read-out: Misc Virus Activity: Lymphocytic Choriomeningitis
Andes virus = tested on: Andes virus
Sindbis virus = details: read-out: Misc Virus Activity: Sindbis
[3] = tested on: encephalomyocarditis virus; details: Cardiovirus A, read-out: Misc Virus Activity: Encephalomyocarditis
[4] = tested on: respiratory syncytial virus; details: human respiratory syncytial virus, read-out: Misc Virus Activity: Respiratory Syncytial
HIV-1 = details: Human immunodeficiency virus 1, read-out: Misc Virus Activity: HIV-1
[5] = La Crosse virus, Vero, read-out: Avg Activity (LACV)
[6] = A549, read-out: Misc Activity: Influenza
[7] = read-out: Misc Activity: Dengue
[8] = read-out: Misc Activity: Tacaribe
[9] = A549, read-out: Misc Virus Activity: Influenza
[10] = read-out: Misc Virus Activity: Dengue
[11] = read-out: Misc Virus Activity: Tacaribe
[12] = read-out: Misc Virus Activity: Ebola
[13] = read-out: Misc Virus Activity: Rift Valley Fever

CC(C)(C)c1ccc(C(=O)NC(=S)Nc2ccc(NC(=O)c3ccccc3Cl)c(N)c2)cc1 [Compound 6, N-[2-amino-4-[(4-tert-butylbenzoyl)-carbamothioylamino]-phenyl]-2-chloro-benzamide hydrochloride]
< 1 µM: EC50 (vaccinia virus; Orthopoxvirus vaccinia) | EC50 (La Crosse virus (LACV); [5]) | EC50 (Chlamydophila caviae) | EC50 (influenza virus; [6]) | EC50 (dengue virus; [7]) | EC50 (Tacaribe virus; [8])
1 to 10 µM: EC50 (Ebola virus; read-out: Misc Activity: Ebola)

Cc1ccc(Cl)c(NC(=S)NC(=O)c2ccc(C(C)(C)C)cc2)c1 [Compound 11, 4-tert-butyl-N-[(2-chloro-5-methyl-phenyl)-carbamothioyl]benzamide]
< 1 µM: EC50 (vaccinia virus; Orthopoxvirus vaccinia) | EC50 (Chlamydophila caviae) | EC50 (dengue virus; [7])
1 to 10 µM: EC50 (La Crosse virus (LACV); [5]) | EC50 (influenza virus; [6])

CC(C)(C)c1ccc(C(=O)NC(=S)Nc2cccc(N)c2)cc1 [Compound 17, N-[(3-aminophenyl)-carbamothioyl]-4-tert-butyl-benzamide]
< 1 µM: EC50 (Chlamydophila caviae) | EC50 (influenza virus; [6]) | EC50 (dengue virus; [7]) | EC50 (Tacaribe virus; [8])
1 to 10 µM: EC50 (vaccinia virus; Orthopoxvirus vaccinia) | EC50 (La Crosse virus (LACV); [5])

COc1cc(NC(=S)NC(=O)c2ccc(C(C)(C)C)cc2)ccc1N [Compound 18, N-[(4-amino-3-methoxy-phenyl)carbamothioyl]-4-tert-butyl-benzamide hydrochloride]
1 to 10 µM: EC50 (vaccinia virus; hydrochloride) | EC50 (La Crosse virus (LACV); read-out: Avg Activity (LACV), hydrochloride)
< 1 µM: EC50 (dengue virus; [7]) | EC50 (Tacaribe virus; [8])

COc1cc(NC(=S)NC(=O)c2ccc(C(C)(C)C)cc2)ccc1NC(C)=O [Compound 20, N-[(4-acetamido-3-methoxy-phenyl)-carbamothioyl]-4-tert-butyl-benzamide]
1 to 10 µM: EC50 (vaccinia virus; Orthopoxvirus vaccinia) | EC50 (La Crosse virus (LACV); [5])
< 1 µM: EC50 (Chlamydophila caviae) | EC50 (influenza virus; [6]) | EC50 (dengue virus; [7]) | EC50 (Tacaribe virus; [8])

CNc1ccc(NC(=S)NC(=O)c2ccc(C(C)(C)C)cc2)cc1 [Compound 21, 4-tert-butyl-N-[[4-(methylamino)phenyl]-carbamothioyl]benzamide hydrochloride]
1 to 10 µM: EC50 (vaccinia virus; Orthopoxvirus vaccinia) | EC50 (La Crosse virus (LACV); [5])
< 1 µM: EC50 (Chlamydophila caviae) | EC50 (influenza virus; [6]) | EC50 (dengue virus; [7]) | EC50 (Tacaribe virus; [8])

COc1cc(NC(=S)NC(=O)c2ccc(C(C)(C)C)cc2)ccc1NC(=O)c1ccccc1Cl [Compound 39]
(reduces yield >10^4-fold): Lymphocytic Choriomeningitis: reduces yield [2]
< 1 µM: EC50 (vaccinia virus; Orthopoxvirus vaccinia) | EC50 (La Crosse virus (LACV); [5]) | EC50 (Chlamydophila caviae) | EC50 (influenza virus; [9]) | EC50 (dengue virus; [10]) | EC50 (Tacaribe virus; [11]) | EC50 (Ebola virus; [12]) | EC50 [1, 13] | EC50 [2] | EC50 (Andes virus; Orthohantavirus andesense, read-out: Misc Virus Activity: Andes) | EC50 (Sindbis virus) | EC50 [3] | EC50 [4] | EC50 (HIV-1)
yield >100-fold): Andes: reduces yield (Andes virus)

CC(C)(C)c1ccc(C(=O)NC(=S)Nc2ccccc2Cl)cc1 [Compound 40, 4-tert-butyl-N-[(2-chlorophenyl)carbamothioyl]-benzamide]
< 1 µM: EC50 (vaccinia virus; Orthopoxvirus vaccinia) | EC50 (La Crosse virus (LACV); [5]) | EC50 (Chlamydophila caviae) | EC50 (influenza virus; [9]) | EC50 (dengue virus; [10]) | EC50 (Tacaribe virus; [11]) | EC50 [1, 13] | EC50 [2]
10 to 25 µM: EC50 (Ebola virus; [12])
(reduces yield >10^4-fold): Lymphocytic Choriomeningitis: reduces yield [2]

CC(C)(C)c1ccc(C(=O)NC(=S)Nc2ccc(Nc3ccccc3)cc2)cc1 [Compound 45, N-[(4-anilinophenyl)-carbamothioyl]-4-tert-butyl-benzamide]
< 1 µM: EC50 (vaccinia virus; Orthopoxvirus vaccinia) | EC50 (Chlamydophila caviae) | EC50 (influenza virus; [9]) | EC50 (dengue virus; [10]) | EC50 (Tacaribe virus; [11])
1 to 10 µM: EC50 (La Crosse virus (LACV); [5])

Cc1ccc(NC(=S)NC(=O)c2ccc(C(C)(C)C)cc2)c(C)c1 [Compound 48, 4-tert-butyl-N-[(2,4-dimethylphenyl)-carbamothioyl]benzamide]
< 1 µM: EC50 (La Crosse virus (LACV); [5]) | EC50 (Chlamydophila caviae) | EC50 (dengue virus; [10]) | EC50 (Tacaribe virus; [11])
1 to 10 µM: EC50 (vaccinia virus; Orthopoxvirus vaccinia) | EC50 (influenza virus; [9])

CN(C)c1ccc(NC(=S)NC(=O)c2ccc(C(C)(C)C)cc2)cc1 [Compound 49, 4-tert-butyl-N-[(4-dimethylaminophenyl)-carbamothioyl]benzamide]
1 to 10 µM: EC50 (vaccinia virus; Orthopoxvirus vaccinia) | EC50 (Chlamydophila caviae)
< 1 µM: EC50 (La Crosse virus (LACV); [5]) | EC50 (influenza virus; [9]) | EC50 (dengue virus; [10]) | EC50 (Tacaribe virus; [11])

NC(=O)c1ncn([C@@H]2O[C@H](CO)[C@@H](O)[C@H]2O)n1 [ribavirin, reference compound]
750 µM: EC50 (La Crosse virus (LACV); La Crosse virus, Vero, read-out: EC50 value for LACV)
300 µM: EC50 ([1]; read-out: EC50 value for RVFV)
